From US12168012B2, “NLRP3 inflammasome inhibitors” (Novartis AG, priority 2018, dated 2024) come the findings set out here.

Experiment [1] concerns NF-kB-dependent TNF-α secretion. Put plainly: TNF-α secretion assay (counterscreen). The experiment is classed as cell-based. The settings on record: Homo sapiens; THP-1 cells, Pam3CSK4-stimulated, 3 hours, HTRF. A digest of the protocol:
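Undifferentiated THP-1 cells, rested overnight, given compound then stimulated with 1 μg/mL LPS or 100 ng/mL Pam3CSK4 for 3 hours. Supernatant TNF-α measured by HTRF; IC50 from four-parameter logistic fit of % inhibition versus concentration, with viability monitored.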

The subject of a further experiment is NLRP3 inflammasome. In words: IL-1β secretion assay. The experiment is classed as cell-based. The settings on record: Homo sapiens, THP-1, 3 h, PMA-differentiated THP-1 cells, 15 μM nigericin, HTRF. The procedure, abridged: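 PMA-differentiated THP-1 cells stimulated with nigericin to trigger NLRP3-dependent IL-1β secretion, measured by HTRF after 3 h. Viability/pyroptosis monitored with PrestoBlue. IC50 from logistic fit of % inhibition vs concentration with Hill coefficient.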
For orientation: In TR-FRET formats the signal depends on donor and acceptor labels being close together.

Structures are written as SMILES. Counter-ions that a name gives are not always drawn.

On to `CC(C)c1nn(CC(=O)N[C@@H]2CCCNC2)c(=O)c2cc3sc(F)cc3n12` [Ex 31, (R)-2-(2-Fluoro-5-isopropyl-8-oxothieno[2′,3′:4,5]pyrrolo[1,2-d][1,2,4]triazin-7(8H)-yl)-N-(piperidin-3-yl)acetamide hydrochloride], for which the results for the IC50 (in experiment [1]; in the experiment with NLRP3 inflammasome) were > 100000 nM and 90.5 nM, respectively.
For the molecule `COC(=O)C12CC(NC(=O)Cn3nc(C(C)C)n4c(cc5sc(Cl)cc54)c3=O)(C1)C2` [Ex 113, Methyl 3-(2-(2-chloro-5-isopropyl-8-oxothieno[2′,3′:4,5]pyrrolo[1,2-d][1,2,4]triazin-7(8H)-yl)acetamido)bicyclo[1.1.1]pentane-1-carboxylate], the IC50 (commonly the midpoint of a concentration-inhibition curve) in experiment [1] was > 100000 nM; in the experiment on NLRP3 inflammasome, 5.8 nM.
With `CC(C)c1nn(CC(=O)N[C@@H]2CCCN(CCF)C2)c(=O)c2cc3sc(Cl)cc3n12` [Ex 28, (R)-2-(2-Chloro-5-isopropyl-8-oxothieno[2′,3′:4,5]pyrrolo[1,2-d][1,2,4]triazin-7(8H)-yl)-N-(1-(2-fluoroethyl)piperidin-3-yl)acetamide], the IC50 in experiment [1] is > 100000 nM; in the experiment with NLRP3 inflammasome, 13.3 nM.
As to `Cc1cc2c(cc3c(=O)n(CC(=O)NC4CC4)nc(C(C)C)n32)s1` [Ex 41, N-Cyclopropyl-2-(5-isopropyl-2-methyl-8-oxothieno[2′,3′:4,5]pyrrolo[1,2-d][1,2,4]triazin-7(8H)-yl)acetamide], the values for the IC50 (in experiment [1]; in the experiment with NLRP3 inflammasome) were > 100000 nM and 1170 nM, respectively.
The like results for `CC(C)(O)c1nn(CC(=O)NC2CC3(COC3)C2)c(=O)c2cc3sc(Cl)cc3n12` [Ex 26, 2-(2-Chloro-5-(2-hydroxypropan-2-yl)-8-oxothieno[2′,3′:4,5]pyrrolo[1,2-d][1,2,4]triazin-7(8H)-yl)-N-(2-oxaspiro[3.3]heptan-6-yl)acetamide] were, in that order, > 100000 nM and 46.4 nM.
The like results for `CC(O)c1nn(CC(=O)Nc2ccncn2)c(=O)c2cc3sc(Cl)cc3n12` (stereo not shown) [Ex 3, 2-(2-Chloro-5-(1-hydroxyethyl)-8-oxothieno[2′,3′:4,5]pyrrolo[1,2-d][1,2,4]triazin-7(8H)-yl)-N-(pyrimidin-4-yl)acetamide] were, in that order, > 100000 nM and 228 nM.
Regarding `Cc1cc2c(cc3c(=O)n(CC(=O)N[C@@H]4CCCNC4)nc(C(C)C)n32)s1` [Ex 38, (R)-2-(5-Isopropyl-2-methyl-8-oxothieno[2′,3′:4,5]pyrrolo[1,2-d][1,2,4]triazin-7(8H)-yl)-N-(piperidin-3-yl)acetamide], the IC50 in experiment [1] is > 100000 nM; in the experiment with NLRP3 inflammasome, 88 nM.
Consider `Cc1cc2c(cc3c(=O)n(CC(=O)N[C@@H]4CCC(=O)NC4)nc(C(C)C)n32)s1` [Ex 39, (R)-2-(5-Isopropyl-2-methyl-8-oxothieno[2′,3′:4,5]pyrrolo[1,2-d][1,2,4]triazin-7(8H)-yl)-N-(6-oxopiperidin-3-yl)acetamide], for which the IC50 in experiment [1] was > 100000 nM; in the experiment on NLRP3 inflammasome, 540 nM.
The like results for `O=C(Cn1nc(C2CC2)n2c(cc3sc(F)cc32)c1=O)N[C@@H]1CCCNC1` [Ex 34, (R)-2-(5-Cyclopropyl-2-fluoro-8-oxothieno[2′,3′:4,5]pyrrolo[1,2-d][1,2,4]triazin-7(8H)-yl)-N-(piperidin-3-yl)acetamide] were, in that order, > 100000 nM and 80.3 nM.
Take `CC(C)c1nn(CC(=O)N[C@@H]2CCCN(C3CC3)C2)c(=O)c2cc3scnc3n12` [Ex 127, (R)-N-(1-Cyclopropylpiperidin-3-yl)-2-(5-isopropyl-8-oxothiazolo[5′,4′:4,5]pyrrolo[1,2-d][1,2,4]triazin-7(8H)-yl)acetamide]: the IC50 was > 100000 nM in experiment [1] and 4.2 nM with NLRP3 inflammasome.
The like results for `CC(C)c1nn(CC(=O)N[C@@H]2CCC[C@H](O)C2)c(=O)c2cc3scnc3n12` [Ex 91, N-((1R,3S)-3-Hydroxycyclohexyl)-2-(5-isopropyl-8-oxothiazolo[5′,4′:4,5]pyrrolo[1,2-d][1,2,4]triazin-7(8H)-yl)acetamide] were, in that order, > 100000 nM and 1.9 nM.
As to `CC(C)(O)c1nn(CC(=O)N[C@@H]2CCC[C@@H](O)C2)c(=O)c2cc3sc(Cl)cc3n12` [Ex 64, 2-(2-Chloro-5-(2-hydroxypropan-2-yl)-8-oxothieno[2′,3′:4,5]pyrrolo[1,2-d][1,2,4]triazin-7(8H)-yl)-N-((1R,3R)-3-hydroxycyclohexyl)acetamide], the IC50 in experiment [1] was > 100000 nM; with NLRP3 inflammasome it was 3.4 nM.
As to `CC(C)c1nn(CC(=O)N[C@@H]2CCCN(CC(C)(C)O)C2)c(=O)c2cc3sc(Cl)cc3n12` [Ex 130, (R)-2-(2-Chloro-5-isopropyl-8-oxothieno[2′,3′:4,5]pyrrolo[1,2-d][1,2,4]triazin-7(8H)-yl)-N-(1-(2-hydroxy-2-methylpropyl)piperidin-3-yl)acetamide], the values for the IC50 (in experiment [1]; with NLRP3 inflammasome) were > 100000 nM and 20.4 nM, respectively.
For `CC(C)(O)c1nn(CC(=O)N[C@@H]2CCCN(CCF)C2)c(=O)c2cc3sc(Cl)cc3n12` [Ex 30, (R)-2-(2-Chloro-5-(2-hydroxypropan-2-yl)-8-oxothieno[2′,3′:4,5]pyrrolo[1,2-d][1,2,4]triazin-7(8H)-yl)-N-(1-(2-fluoroethyl)piperidin-3-yl)acetamide], the figures for the IC50 (in experiment [1]; in the experiment with NLRP3 inflammasome) were > 100000 nM and 52.5 nM, respectively.
In the case of `CC(C)(O)c1nn(CC(=O)N[C@@H]2CCC[C@@](C)(O)C2)c(=O)c2cc3sc(Cl)cc3n12` [Ex 83, 2-(2-Chloro-5-(2-hydroxypropan-2-yl)-8-oxothieno[2′,3′:4,5]pyrrolo[1,2-d][1,2,4]triazin-7(8H)-yl)-N-((1R,3R)-3-hydroxy-3-methylcyclohexyl)acetamide], the IC50 is > 100000 nM in experiment [1] and 16.2 nM in the experiment with NLRP3 inflammasome.
`CC(C)c1nn(CC(=O)Nc2ccncn2)c(=O)c2cc3sc(Cl)cc3n12` [Ex 1, 2-(2-Chloro-5-isopropyl-8-oxothieno[2′,3′:4,5]pyrrolo[1,2-d][1,2,4]triazin-7(8H)-yl)-N-(pyrimidin-4-yl)acetamide]: the results for the IC50 (in experiment [1]; in the experiment with NLRP3 inflammasome) were > 100000 nM and 20.2 nM, respectively.
The like results for `CC(C)c1nn(CC(=O)N[C@@H]2CCC[C@@H](O)C2)c(=O)c2cc3scnc3n12` [Ex 47, N-((1R,3R)-3-Hydroxycyclohexyl)-2-(5-isopropyl-8-oxothiazolo[5′,4′:4,5]pyrrolo[1,2-d][1,2,4]triazin-7(8H)-yl)acetamide] were, in that order, > 100000 nM and 9.1 nM.
Turning to `CC(C)c1nn(CC(=O)NCC(C)(C)CO)c(=O)c2cc3sc(Cl)cc3n12` [Ex 20, 2-(2-Chloro-5-isopropyl-8-oxothieno[2′,3′:4,5]pyrrolo[1,2-d][1,2,4]triazin-7(8H)-yl)-N-(3-hydroxy-2,2-dimethylpropyl)acetamide], the values for the IC50 (in experiment [1]; with NLRP3 inflammasome) were > 100000 nM and 59.8 nM, respectively.
With `CC(C)c1nn(CC(=O)NC[C@H](C)O)c(=O)c2cc3sc(Cl)cc3n12` [Ex 69, (S)-2-(2-Chloro-5-isopropyl-8-oxothieno[2′,3′:4,5]pyrrolo[1,2-d][1,2,4]triazin-7(8H)-yl)-N-(2-hydroxypropyl)acetamide], the IC50 in experiment [1] is > 100000 nM; with NLRP3 inflammasome, 58.8 nM.
Turning to `CC(C)c1nn(CC(=O)N[C@@H]2CCCN(CCF)C2)c(=O)c2cc3scnc3n12` [Ex 89, (R)-N-(1-(2-Fluoroethyl)piperidin-3-yl)-2-(5-isopropyl-8-oxothiazolo[5′,4′:4,5]pyrrolo[1,2-d][1,2,4]triazin-7(8H)-yl)acetamide], the IC50 in experiment [1] was > 100000 nM; in the experiment with NLRP3 inflammasome, 24.8 nM.
